In patent publication US20080004302A1, “Novel Compounds” (ASTRAZENECA AB, priority 2006, published 2008):
Where two headings read alike, the source gives them in different places.

Key:
[1] = target: human cytochrome P450 (CYP) 2C19 (Homo sapiens, UniProt P33261)
Procedure: (§1) The inhibitory potential (IC50) of test compounds against 5 human cytochrome P450 (CYP) isoforms (IA2, 2C9, 2C19, 3A4 and 2D6) was assessed using an automated fluorescent end point in vitro assay modified from Crespi (Crespi and Stresser, 2000). Microsomal subcellular fractions prepared from Yeast cell lines expressing each human CYP isoform were used as an enzyme source in this assay. The activity of the 5 major human CYPs was determined from the biotransformation of a number of coumarin substrates to fluorescent metabolites, in the presence of NADPH. […] Stock solutions of each CYP, with its respective substrate, were prepared in phosphate buffer pH7.4 (see Table 1) and 178 μl was added to the well of a black solid, flat bottom, 300 μl 96 well microtitre plate (Coming Costar). […] After pre-incubating at 37° C. for 5 min the reactions were started with addition of NADPH (20 μl, concentration shown in Table 1). The final solvent content in each incubation was <=2% (1% from the test compound and a maximum of 1% from the substrate). The appropriate solvent controls and substrate blanks were included in each experiment to assess control activity and identify any inherent fluorescence due to the test compounds. In addition, known inhibitors of each CYP were included as positive controls (see Table 3 for inhibitor concentrations and expected IC50 ranges). The reactions were stopped at defined timepoints (see Table 1) by quenching with 100 μl of solvent (acetonitrile:0.5M Tris buffer 80:20 v/v). The plates were read on a fluorimeter (Spectrafluor Plus) at the appropriate excitation and emission wavelengths (listed in Table 2) and the percent activity, corrected for control, was plotted against the test compound concentration.

[2] = target: T1, human cytochrome P450 (CYP) 1A2 (Homo sapiens, UniProt P05177)
T1 sequence (P05177 1-516): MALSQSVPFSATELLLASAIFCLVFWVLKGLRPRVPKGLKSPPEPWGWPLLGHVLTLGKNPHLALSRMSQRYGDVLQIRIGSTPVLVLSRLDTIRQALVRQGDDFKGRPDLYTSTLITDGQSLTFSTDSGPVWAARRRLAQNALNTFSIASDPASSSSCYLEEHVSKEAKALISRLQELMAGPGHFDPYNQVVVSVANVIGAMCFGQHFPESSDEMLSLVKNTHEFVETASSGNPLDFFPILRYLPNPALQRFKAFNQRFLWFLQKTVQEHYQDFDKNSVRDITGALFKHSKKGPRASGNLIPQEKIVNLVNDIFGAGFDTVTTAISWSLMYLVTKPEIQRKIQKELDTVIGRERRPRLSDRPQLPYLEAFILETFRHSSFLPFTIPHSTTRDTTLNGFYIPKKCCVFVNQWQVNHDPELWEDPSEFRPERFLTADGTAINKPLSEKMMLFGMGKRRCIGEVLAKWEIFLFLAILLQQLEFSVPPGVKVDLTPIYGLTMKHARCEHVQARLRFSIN
Procedure: as §1

[3] = target: human cytochrome P450 (CYP) 2C9 (Homo sapiens, UniProt P11712)
Procedure: as §1

[4] = target: CYP2D6 (Homo sapiens, UniProt P10635); assay: in vitro; details: pH 7.4, probe coumarin substrate (not named)
Procedure: as §1

[5] = target: T2, human cytochrome P450 (CYP) 3A4 (Homo sapiens, UniProt P08684); assay: Cytochrome P450 inhibition assay, 3A4; assay type: in vitro ADME; details: test concentrations 0.1-10 μM
T2 construct: made in house; host or cells: yeast (microsomal fraction)
Procedure: as §1

[6] = target: T3, FGFR kinase domain (Homo sapiens, UniProt P11362, C488A/C584S); assay: Kinase assay (ELISA) for inhibition of FGFR activity; assay type: biochemical
T3 construct: FGFR kinase domain (amino acids 458-765, C488A, C584S) N-terminally fused to a His6-tag; made in house
Procedure: To determine inhibition of FGFR activity, kinase assays were conducted using ELISA (Enzyme-Linked Immunosorbent Assay) technology.
Kinase activity assays were performed in 384-well polypropylene plates (Matrix, 4311) with a total volume of 40 μl in each well. Each well was coated with 2 μg of polyEAY substrate (Sigma, P3899) at 4° C. overnight. The plates were then washed once with 100 μl PBS and once with 100 μl 50 mM HEPES (pH 7.4) prior to the addition of the kinase assay reagents. […] Various concentrations of test compounds were each added in 5% (v/v) DMSO to yield a final assay DMSO concentration of 1.25% (v/v). The kinase reactions were incubated at room temperature for 45 minutes and stopped by washing the plate three times with 100 μl PBS plus 0.05% Tween. […] Following this, the plates were then washed repeatedly with 100 μl PBS plus 0.05% Tween to remove all traces of the antibody solution. 40 μl of 50 μg/ml 3,3′,5,5′-Tetramethylbenzidine (Sigma, T2885), 0.05M phosphate-citrate buffer, containing 0.03% sodium perborate was added to each well and the plates incubated at room temperature for twelve minutes. The colour reaction was stopped by the addition of 20 μl 2M H2SO4 and the plates read at 450 nm on a Spectrafluor Plus (Tecan).

[7] = target: T4, FGFR1 IIIc (Homo sapiens, UniProt P11362); assay: Cell based inhibition of transiently expressed FGFR1 IIIc phosphorylation via use of ECHO technology (Cos-1 cells); details: Cos-1 cells, phospho-FGFR1, ECHO dosing; upper bound of bin; read-out: IC50
T4 construct: host or cells: Cos-1

[8] = target: T5, human IGF1R (Homo sapiens, UniProt P08069); assay: Inhibition of insulin-like growth factor-1 receptor phosphorylation in R+ cells; assay type: cell-based; details: 30 nM IGF1, read-out: IGF cell class
T5 construct: expressed in transfected cells; host or cells: R+ cells (R- mouse fibroblasts transfected with human IGF1R)

[9] = target: FGFR1 kinase (Homo sapiens, UniProt P11362); assay: Kinase assay (using Caliper technology); assay type: biochemical; details: FGFR1 kinase, Caliper; upper bound of bin; read-out: IC50
Summary of the method: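 Human FGFR1 kinase activity measured with a 13-mer fluorescently tagged FGFR1-specific peptide substrate; compounds serially diluted in 5% (v/v) DMSO. Reactions ran 1.5 h at room temperature, stopped with EDTA-containing HEPES pH 7.5 buffer. Phosphorylated and unphosphorylated peptide separated by microfluidic mobility shift.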

[10] = system: Erk phosphorylation; assay: Growth factor (bFGF) stimulated Erk phosphorylation in NIH 3T3 cells; details: Mus musculus
[11] = target: T4, FGFR1 IIIc; assay: Cell based inhibition of transiently expressed FGFR1 IIIc phosphorylation (Cos-1 cells); details: Cos-1 cells, phospho-FGFR1; upper bound of bin; read-out: IC50
[12] = target: T6, CYP3A4 (Homo sapiens, UniProt P08684); assay: Cytochrome P450 inhibition assay, 3A4; assay type: in vitro ADME; details: human, pH 7.4, probe coumarin substrate (not named); test concentrations 0.1-10 μM
T6 construct: made in house; host or cells: yeast (microsomal fraction)
Procedure: as §1

[13] = FGFR inhibition tests, ELISA kinase assay, read-out: Activity class
[14] = NIH3T3, NIH 3T3 cells, 3 ng/ml bFGF
[15] = comparative testing, read-out: Fgf Ic50

T5 sequence (P08069 31-1367): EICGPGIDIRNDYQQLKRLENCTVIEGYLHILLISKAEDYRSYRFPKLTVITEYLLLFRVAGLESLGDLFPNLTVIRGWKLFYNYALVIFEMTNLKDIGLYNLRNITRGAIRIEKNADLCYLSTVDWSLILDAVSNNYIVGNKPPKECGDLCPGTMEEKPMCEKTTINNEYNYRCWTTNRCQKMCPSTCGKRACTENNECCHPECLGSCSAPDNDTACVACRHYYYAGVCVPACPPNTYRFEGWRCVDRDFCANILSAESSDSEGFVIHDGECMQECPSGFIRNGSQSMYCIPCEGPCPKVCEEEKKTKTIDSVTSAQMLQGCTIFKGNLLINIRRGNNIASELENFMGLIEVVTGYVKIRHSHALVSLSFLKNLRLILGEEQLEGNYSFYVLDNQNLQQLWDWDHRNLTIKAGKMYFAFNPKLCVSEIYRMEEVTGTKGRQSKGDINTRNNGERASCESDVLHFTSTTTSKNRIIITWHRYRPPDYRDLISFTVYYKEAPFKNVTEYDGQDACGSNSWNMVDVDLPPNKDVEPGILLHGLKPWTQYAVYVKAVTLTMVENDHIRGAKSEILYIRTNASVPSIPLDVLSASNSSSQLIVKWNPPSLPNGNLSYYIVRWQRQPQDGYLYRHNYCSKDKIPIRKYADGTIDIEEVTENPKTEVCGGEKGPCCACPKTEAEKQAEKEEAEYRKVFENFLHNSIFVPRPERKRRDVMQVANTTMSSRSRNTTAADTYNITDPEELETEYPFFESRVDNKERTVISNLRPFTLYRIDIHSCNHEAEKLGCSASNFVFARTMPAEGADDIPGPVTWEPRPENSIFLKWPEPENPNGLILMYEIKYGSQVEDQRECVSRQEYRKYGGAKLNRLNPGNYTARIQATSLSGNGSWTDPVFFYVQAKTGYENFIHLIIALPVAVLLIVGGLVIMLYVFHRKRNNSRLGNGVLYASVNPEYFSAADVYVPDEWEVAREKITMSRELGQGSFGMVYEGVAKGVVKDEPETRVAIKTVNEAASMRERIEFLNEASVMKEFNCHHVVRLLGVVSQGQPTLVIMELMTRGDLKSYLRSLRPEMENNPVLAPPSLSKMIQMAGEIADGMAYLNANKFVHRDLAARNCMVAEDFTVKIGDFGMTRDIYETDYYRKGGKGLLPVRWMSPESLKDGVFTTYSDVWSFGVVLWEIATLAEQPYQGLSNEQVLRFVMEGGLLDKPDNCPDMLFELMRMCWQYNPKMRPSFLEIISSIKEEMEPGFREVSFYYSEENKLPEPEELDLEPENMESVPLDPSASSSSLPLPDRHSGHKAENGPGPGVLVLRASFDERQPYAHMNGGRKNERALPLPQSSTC
T3 sequence (P11362 458-765 C488A/C584S): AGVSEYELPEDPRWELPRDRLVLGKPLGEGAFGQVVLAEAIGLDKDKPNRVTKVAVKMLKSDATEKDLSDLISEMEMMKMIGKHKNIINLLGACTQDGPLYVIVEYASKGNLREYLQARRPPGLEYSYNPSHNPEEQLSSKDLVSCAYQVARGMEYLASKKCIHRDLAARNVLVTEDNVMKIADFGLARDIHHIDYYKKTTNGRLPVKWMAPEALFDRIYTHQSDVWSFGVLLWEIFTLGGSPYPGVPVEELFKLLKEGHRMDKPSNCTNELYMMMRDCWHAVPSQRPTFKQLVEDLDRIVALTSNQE
T2 sequence (P08684 whole entry): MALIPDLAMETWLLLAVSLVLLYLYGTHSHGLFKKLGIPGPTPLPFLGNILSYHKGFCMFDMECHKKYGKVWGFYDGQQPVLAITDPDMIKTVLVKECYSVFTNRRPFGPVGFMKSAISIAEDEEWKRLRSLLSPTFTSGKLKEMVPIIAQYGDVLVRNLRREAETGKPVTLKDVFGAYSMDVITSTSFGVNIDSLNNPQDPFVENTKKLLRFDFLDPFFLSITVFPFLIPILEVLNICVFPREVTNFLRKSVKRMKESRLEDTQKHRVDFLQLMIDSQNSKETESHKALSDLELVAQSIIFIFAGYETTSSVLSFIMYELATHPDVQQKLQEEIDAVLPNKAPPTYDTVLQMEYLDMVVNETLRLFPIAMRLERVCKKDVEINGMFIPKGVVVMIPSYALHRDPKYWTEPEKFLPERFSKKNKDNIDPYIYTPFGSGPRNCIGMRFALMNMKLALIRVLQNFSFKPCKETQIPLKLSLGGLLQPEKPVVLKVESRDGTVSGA
CYP2D6, sequence (P10635 whole entry): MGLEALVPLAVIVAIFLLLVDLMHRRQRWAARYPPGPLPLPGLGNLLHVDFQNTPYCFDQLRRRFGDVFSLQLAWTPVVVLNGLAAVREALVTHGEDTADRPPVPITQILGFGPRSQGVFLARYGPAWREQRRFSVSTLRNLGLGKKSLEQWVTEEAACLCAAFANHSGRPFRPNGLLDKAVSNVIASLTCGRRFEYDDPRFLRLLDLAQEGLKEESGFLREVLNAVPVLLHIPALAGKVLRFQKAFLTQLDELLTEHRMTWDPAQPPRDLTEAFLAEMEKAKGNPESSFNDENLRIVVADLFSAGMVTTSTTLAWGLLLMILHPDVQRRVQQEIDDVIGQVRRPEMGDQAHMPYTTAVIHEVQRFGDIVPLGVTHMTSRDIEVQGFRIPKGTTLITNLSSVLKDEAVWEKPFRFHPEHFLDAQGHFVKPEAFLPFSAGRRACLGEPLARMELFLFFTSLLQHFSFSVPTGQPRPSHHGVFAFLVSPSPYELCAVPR
T4 sequence (P11362 22-822): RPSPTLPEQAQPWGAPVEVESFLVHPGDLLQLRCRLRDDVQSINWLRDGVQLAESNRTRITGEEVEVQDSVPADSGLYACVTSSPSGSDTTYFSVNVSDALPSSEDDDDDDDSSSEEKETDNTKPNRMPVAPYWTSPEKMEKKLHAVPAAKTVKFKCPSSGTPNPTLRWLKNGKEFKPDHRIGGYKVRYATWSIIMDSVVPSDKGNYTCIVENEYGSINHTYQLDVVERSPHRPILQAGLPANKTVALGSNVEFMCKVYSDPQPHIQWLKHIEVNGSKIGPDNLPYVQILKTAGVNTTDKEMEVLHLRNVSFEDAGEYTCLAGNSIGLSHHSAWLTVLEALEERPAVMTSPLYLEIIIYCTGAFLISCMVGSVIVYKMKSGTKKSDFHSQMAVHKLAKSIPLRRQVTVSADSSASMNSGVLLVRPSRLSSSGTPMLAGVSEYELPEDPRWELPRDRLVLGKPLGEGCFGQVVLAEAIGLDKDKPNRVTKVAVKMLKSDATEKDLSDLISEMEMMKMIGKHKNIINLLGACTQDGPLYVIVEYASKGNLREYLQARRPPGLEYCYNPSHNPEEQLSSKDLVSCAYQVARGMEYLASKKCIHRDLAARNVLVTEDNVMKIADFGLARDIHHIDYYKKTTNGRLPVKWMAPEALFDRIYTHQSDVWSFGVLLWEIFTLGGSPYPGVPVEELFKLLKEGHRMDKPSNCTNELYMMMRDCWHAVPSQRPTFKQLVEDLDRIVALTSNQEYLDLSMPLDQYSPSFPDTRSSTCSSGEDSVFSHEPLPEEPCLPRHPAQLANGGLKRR
human cytochrome P450 (CYP) 2C19, sequence (P33261 whole entry): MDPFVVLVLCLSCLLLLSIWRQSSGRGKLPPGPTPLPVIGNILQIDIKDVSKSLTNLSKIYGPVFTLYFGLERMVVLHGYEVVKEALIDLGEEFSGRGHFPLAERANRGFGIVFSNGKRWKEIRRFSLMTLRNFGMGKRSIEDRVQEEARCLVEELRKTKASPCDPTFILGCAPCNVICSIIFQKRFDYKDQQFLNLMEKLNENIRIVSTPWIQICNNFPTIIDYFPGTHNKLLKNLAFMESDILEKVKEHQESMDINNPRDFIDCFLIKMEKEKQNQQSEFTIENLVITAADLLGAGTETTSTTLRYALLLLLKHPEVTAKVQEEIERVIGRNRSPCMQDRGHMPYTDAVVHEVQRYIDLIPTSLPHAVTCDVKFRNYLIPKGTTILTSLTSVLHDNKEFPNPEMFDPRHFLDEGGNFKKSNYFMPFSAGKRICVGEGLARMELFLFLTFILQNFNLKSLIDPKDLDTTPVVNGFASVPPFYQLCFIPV
human cytochrome P450 (CYP) 2C9, sequence (P11712 whole entry): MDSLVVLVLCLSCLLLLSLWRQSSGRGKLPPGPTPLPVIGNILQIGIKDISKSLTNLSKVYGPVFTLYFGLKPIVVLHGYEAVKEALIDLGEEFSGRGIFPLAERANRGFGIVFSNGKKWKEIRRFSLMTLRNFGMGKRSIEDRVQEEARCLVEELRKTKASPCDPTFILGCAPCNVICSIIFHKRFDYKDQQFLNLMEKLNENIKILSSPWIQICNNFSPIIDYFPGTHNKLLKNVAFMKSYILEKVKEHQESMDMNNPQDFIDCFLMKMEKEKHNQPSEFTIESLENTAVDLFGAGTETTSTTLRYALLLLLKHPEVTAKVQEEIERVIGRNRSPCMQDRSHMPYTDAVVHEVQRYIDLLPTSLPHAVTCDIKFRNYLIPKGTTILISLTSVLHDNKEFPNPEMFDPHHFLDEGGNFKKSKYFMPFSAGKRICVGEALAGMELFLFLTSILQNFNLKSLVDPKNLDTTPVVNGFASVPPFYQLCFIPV
FGFR1 kinase, sequence (P11362 22-822): as the sequence (P11362 22-822) above
T6 sequence (P08684 whole entry): as the sequence (P08684 whole entry) above

Row | SMILES | IC50 [1] | IC50 [2] | IC50 [3] | IC50 [4] | IC50 [5] | IC50 [6, 13] | IC50 [7] | IC50 [8] | IC50 [9] | IC50 [10, 14] | IC50 [11] | IC50 [6, 15] | IC50 ([10]; NIH3T3) | IC50 [12]
1 | Cc1cc(CNc2ncc(Cl)c(Nc3cc(C)[nH]n3)n2)on1 [(b), 5-chloro-N-[(3-methylisoxazol-5-yl)methyl]-N′-(5-methyl-2H-pyrazol-3-yl)pyrimidine-2,4-diamine] | > 10000 nM | 460 nM | 1120 nM | > 10000 nM | 4400 nM | – | – | – | – | – | – | – | – | –
2 | COc1ccc2[nH]c([S+]([O-])Cc3ncc(C)c(OC)c3C)nc2c1 (stereo not drawn) [Omeprazole] | 1500 to 4600 nM | – | – | – | – | – | – | – | – | – | – | – | – | –
3 | CC(C)Oc1cc(Nc2ccnc(NCc3cc(C4CC4)no3)n2)n[nH]1 [Example 67, N-[(3-cyclopropyl-1,2-oxazol-5-yl)methyl]-N′-(5-propan-2-yloxy-2H-pyrazol-3-yl)pyrimidine-2,4-diamine] | – | – | – | – | – | < 100 nM | < 200 nM | 1000 to 10000 nM | < 200 nM | < 200 nM | < 200 nM | – | – | –
4 | COc1cc(COc2cc(Nc3ccnc(NCc4cc(C)no4)n3)n[nH]2)cc(OC)c1 [Example 73, N′-[5-[(3,5-dimethoxyphenyl)methoxy]-1H-pyrazol-3-yl]-N-[(3-methyl-1,2-oxazol-5-yl)methyl]pyrimidine-2,4-diamine] | – | – | – | – | – | < 100 nM | < 200 nM | 1000 to 10000 nM | < 200 nM | < 200 nM | < 200 nM | – | – | –
5 | Cc1cc(Nc2nc(NCc3cc(C)no3)ncc2Br)[nH]n1 [Comparative Example (a), 5-bromo-N-[(3-methylisoxazol-5-yl)methyl]-N′-(5-methyl-2H-pyrazol-3-yl)pyrimidine-2,4-diamine] | > 10000 nM | 790 nM | > 10000 nM | > 10000 nM | 3310 nM | – | – | – | – | – | – | 140 nM | – | –
6 | Cc1cc(CNc2nccc(Nc3cc(C)[nH]n3)n2)on1 [Example 1, N-[(3-methylisoxazol-5-yl)methyl]-N′-(5-methyl-2H-pyrazol-3-yl)pyrimidine-2,4-diamine] | > 10000 nM | > 10000 nM | > 10000 nM | > 10000 nM | 5700 nM | – | – | > 10000 nM | – | – | – | – | < 1000 nM | –
7 | Cc1cc(CNc2nccc(Nc3cc(C4CC4)[nH]n3)n2)on1 [Example 9, N′-(5-cyclopropyl-2H-pyrazol-3-yl)-N-[(3-methyl-1,2-oxazol-5-yl)methyl]pyrimidine-2,4-diamine] | > 10000 nM | 2190 nM | > 10000 nM | > 10000 nM | – | < 100 nM | – | 1000 to 10000 nM | – | – | – | 40 nM | – | > 10000 nM
8 | CCCc1cc(Nc2nc(NCc3cc(C)no3)ncc2Br)n[nH]1 [Comparative Example (d), 5-bromo-N-[(3-methylisoxazol-5-yl)methyl]-N′-(5-propyl-2H-pyrazol-3-yl)pyrimidine-2,4-diamine] | 2880 nM | ≤ 100 nM | 3080 nM | > 10000 nM | 370 nM | – | – | – | – | – | – | 90 nM | – | –
